Measured values as given in patent US8592407B2, “Pyrrolo[2,1-c][1,4] benzodiazepine derivatives with dithiocarbamate side chains and process for the preparation thereof” (Council of Scientific & Industrial Research, priority 2008, dated 2013).

Tests used:
[1] = system: Ovary OVCAR-5; experiment: Preliminary in vitro cytotoxicity on six cell lines
[2] = system: Lung A-549; experiment: as above
[3] = system: calf thymus DNA (CT-DNA); experiment: Thermal denaturation studies with duplex-form calf thymus DNA; type: binding; settings: [PBD]:[DNA] 1:5, CT-DNA 100 μM, ligand 20 μM, pH 7.00; for ΔTm after incubation at 37° C. for 0 h: 0 h at 37° C.; for ΔTm after incubation at 37° C. for 18 h: 18 h at 37° C.
Method: Compounds have been subjected to thermal denaturation studies with duplex-form calf thymus DNA (CT-DNA) using an modification of a reported procedure (Newman, M. S. Carcinog-compr. Surv. 1976, 1, 203; (b) Hecht, S. S.; Loy, M.; Hoffman, Carcinog-compr. Surv. 1976, 1, 325). Working solutions in aqueous buffer (10 mM NaH2PO4/Na2HPO4, 1 mM Na2EDTA, pH 7.00+0.01) containing CT-DNA (100 μm in phosphate) and the PBD (20 μm) have been prepared by addition of concentrated PBD solutions in DMSO to obtain a fixed [PBD]/[DNA] molar ratio of 1:5. The DNA−PBD solutions have been incubated at 37° C. for 0 and 18 h prior to analysis. Samples have been monitored at 260 nm using a Beckman DU-800 spectrophotometer fitted with high performance temperature controller, and heated at 1° C. min^−1
in the 40-110° C. range. DNA helix[…]coil transition temperatures (Tm) have been obtained from the maxima in the d(A260)/dT derivative plots. Drug-induced alterations in DNA melting behavior are given by: ΔTm=Tm(DNA+PBD)−Tm (DNA alone), where the Tm value for the PBD-free CT-DNA is 69.1±0.01.

[4] = system: Liver HEP-2; experiment: Preliminary in vitro cytotoxicity on six cell lines; settings: unit assumed
[5] = system: Colon HCT-15; experiment: as above; settings: unit assumed
[6] = system: Neuroblastoma IMR-32; experiment: as above
[7] = system: Colon 502713; experiment: as above; settings: concentration (mg/ml) 1 × 10^−5 M
[8] = concentration (mg/ml) 1 × 10^−5 M
[9] = concentration (mg/ml) 1 × 10^−6 M

COc1cc2c(cc1OCCCCSC(=S)N1CCN(C)CC1)N=C[C@@H]1CCCN1C2=O [Compound 14c, 4-[(11aS)-7-(methyloxy)-5-oxo-2,3,5,11a-tetrahydro-1H-benzo[e]pyrrolo[1,2-a][1,4]diazepin-8-yl]oxybutyl4-methylhexahydro-1-pyrazinecarbodithioate]
Preliminary in vitro cytotoxicity data [1, 8]: 36
Preliminary in vitro cytotoxicity data [2, 8]: 50
ΔTm after incubation at 37° C. for 0 h [3]: 2.1 °C
ΔTm after incubation at 37° C. for 18 h [3]: 2.2 °C
Preliminary in vitro cytotoxicity data [4, 8]: 66%
Preliminary in vitro cytotoxicity data [5, 8]: 82%
Preliminary in vitro cytotoxicity data [6, 8]: 86
Preliminary in vitro cytotoxicity data [7]: 75

COc1cc2c(cc1OCCCCCSC(=S)N1CCN(C)CC1)N=C[C@@H]1CCCN1C2=O [Compound 14d, 5-[(11aS)-7-(methyloxy)-5-oxo-2,3,5,11a-tetrahydro-1H-benzo[e]pyrrolo[1,2-a][1,4]diazepin-8-yl]oxypentyl4-methylhexahydro-1-pyrazinecarbodithioate]
Preliminary in vitro cytotoxicity data [1, 8]: 22
Preliminary in vitro cytotoxicity data [2, 8]: 31
ΔTm after incubation at 37° C. for 0 h [3]: 6.0 °C
ΔTm after incubation at 37° C. for 18 h [3]: 10.9 °C
Preliminary in vitro cytotoxicity data [4, 8]: 66%
Preliminary in vitro cytotoxicity data [5, 8]: 50%
Preliminary in vitro cytotoxicity data [6, 8]: 95
Preliminary in vitro cytotoxicity data [7]: 78

COc1cccc2c1C(=O)c1c(O)c3c(c(O)c1C2=O)C[C@@](O)(C(=O)CO)C[C@@H]3O[C@H]1C[C@H](N)[C@H](O)[C@H](C)O1 [Adriamycin, reference compound]
Preliminary in vitro cytotoxicity data [1, 9]: 30
Preliminary in vitro cytotoxicity data [2, 9]: 61
Preliminary in vitro cytotoxicity data [4, 9]: 31%
Preliminary in vitro cytotoxicity data [5, 9]: 58%
Preliminary in vitro cytotoxicity data [6, 9]: 80

COc1cc2c(cc1OCCCCCN1CCN(C(=S)SCCC(C#N)(c3ccccc3)c3ccccc3)CC1)N=C[C@@H]1CCCN1C2=O [Compound 12d, 3-cyano-3,3-diphenylpropyl 4-(5-[(11aS)-7-(methyloxy)-5-oxo-2,3,5,11a-tetrahydro-1H-benzo[e]pyrrolo[1,2-a][1,4]diazepin-8-yl]oxypentyl)hexahydro-1-pyrazinecarbodithioate]
ΔTm after incubation at 37° C. for 0 h [3]: 2.0 °C
ΔTm after incubation at 37° C. for 18 h [3]: 2.1 °C

COc1cc2c(cc1OCCCCSC(=S)N1CCN(CCCN3C(=O)c4cccc5cccc(c45)C3=O)CC1)N=C[C@@H]1CCCN1C2=O [Compound 13c, 4-[(11aS)-7-(methyloxy)-5-oxo-2,3,5,11a-tetrahydro-1H-benzo[e]pyrrolo[1,2-a][1,4]diazepin-8-yl]oxybutyl4-[3-(1,3-dioxo-2,3-dihydro-1H-benzo[de]isoquinolin-2-yl)propyl]hexahydro-1-pyrazinecarbodithioate]
ΔTm after incubation at 37° C. for 0 h [3]: 5.0 °C
ΔTm after incubation at 37° C. for 18 h [3]: 5.0 °C

COc1cc2c(cc1OCCCSC(=S)N1CCN(CCCN3C(=O)c4cccc5cccc(c45)C3=O)CC1)N=C[C@@H]1CCCN1C2=O [Compound 13b, 3-[(11aS)-7-(methyloxy)-5-oxo-2,3,5,11a-tetrahydro-1H-benzo[e]pyrrolo[1,2-a][1,4]diazepin-8-yl]oxypropyl4-[3-(1,3-dioxo-2,3-dihydro-1H-benzo[de]isoquinolin-2-yl)propyl]hexahydro-1-pyrazinecarbodithioate]
ΔTm after incubation at 37° C. for 0 h [3]: 3.1 °C
ΔTm after incubation at 37° C. for 18 h [3]: 3.3 °C

COc1cc2c(cc1O)N=CC1CCCN1C2=O (stereo not shown) [DC-81, reference compound]
ΔTm after incubation at 37° C. for 0 h [3]: 0.3 °C
ΔTm after incubation at 37° C. for 18 h [3]: 0.7 °C

COc1cc2c(cc1OCCCCCSC(=S)N1CCN(CCCN3C(=O)c4cccc5cccc(c45)C3=O)CC1)N=C[C@@H]1CCCN1C2=O [Compound 13d, 5-[(11aS)-7-(methyloxy)-5-oxo-2,3,5,11a-tetrahydro-1H-benzo[e]pyrrolo[1,2-a][1,4]diazepin-8-yl]oxypentyl4-[3-(1,3-dioxo-2,3-dihydro-1H-benzo[de]isoquinolin-2-yl)propyl]hexahydro-1-pyrazinecarbodithioate]
ΔTm after incubation at 37° C. for 0 h [3]: 4.0 °C
ΔTm after incubation at 37° C. for 18 h [3]: 4.6 °C
